# According to ChEMBL document CHEMBL1128726, “N-substituted oxazolo[5,4-b]pyridin-2(1H)-ones: a new class of non-opiate antinociceptive agents” (J Med Chem, 1995):
# Legend:
# [1] = test system: Mus musculus; experiment: Inhibition of phenylquinone induced writhing in mice following 50 mg/kg p.o.; assay type: functional; details: route oral
# [2] = species: Mus musculus; experiment: Analgesic activity against phenylquinone induced writhing in mice compared to that of aspirin.; assay type: functional
# [3] = species: Rattus norvegicus; experiment: Analgesic activity against acetic acid-induced writhing in the rat compared to that of aspirin.; assay type: functional
# [4] = test system: Rattus norvegicus; experiment: Inhibition of acetic acid induced writhing in rat following 50 mg/kg p.o.; assay type: functional; details: route oral
# [5] = test system: Rattus norvegicus; experiment: Antiinflammatory activity was evaluated by carrageenan induced rat paw edema (6 rats/ dose) at peroral dose of 50 mg/kg by inhibition of Prostaglandin E2 (PGE2).; assay type: functional; details: route oral
# [6] = species: Mus musculus; experiment: Antinociceptive potency against phenylquinone (PBQ)-induced writhing in mice (8 mice/dose); assay type: functional
# [7] = test system: Rattus norvegicus; experiment: Antiinflammatory activity was evaluated by carrageenan induced rat paw edema (6 rats/ dose) at peroral dose of 50 mg/kg and percent of variation of edema volume was determined.; assay type: functional; details: route oral
# [8] = test system: Rattus norvegicus; experiment: % inhibition of acetic acid-induced writhing in rat at 1.5 mg/kg peroral dose, 30 min postdose(5 rats per compound at each time).p<0.001; assay type: functional; details: 0.5 h, route oral
# [9] = test system: Rattus norvegicus; experiment: Antiinflammatory activity was evaluated by carrageenan induced rat paw edema (6 rats/ dose) at peroral dose of 50 mg/kg by inhibition of leukotriene B4 (LTB4) synthesis.; assay type: functional; details: route oral
# [10] = test system: Rattus norvegicus; experiment: % inhibition of acetic acid-induced writhing in rat at 1.5 mg/kg peroral dose, 360 min postdose(5 rats per compound at each time); assay type: functional; details: 6 h, route oral
# [11] = test system: Rattus norvegicus; experiment: % inhibition of acetic acid-induced writhing in rat at 1.5 mg/kg peroral dose, 60 min postdose(5 rats per compound at each time).p<0.01; assay type: functional; details: 1 h, route oral
# [12] = test system: Rattus norvegicus; experiment: % inhibition of acetic acid-induced writhing in rat at 1.5 mg/kg peroral dose, 180 min postdose(5 rats per compound at each time).p<0.05; assay type: functional; details: 3 h, route oral
# [13] = test system: Rattus norvegicus; experiment: % inhibition of acetic acid-induced writhing in rat at 1.5 mg/kg peroral dose, 15 min postdose(5 rats per compound at each time). p<0.05; assay type: functional; details: 0.25 h, route oral
# [14] = test system: Mus musculus; experiment: Analgesic activity was evaluated in mice by hot plate assay and percent change in foot licking latency was determined at 32 mg/kg i.p. dose. p<0.05; assay type: functional; details: route intraperitoneal
# [15] = test system: Rattus norvegicus; experiment: % inhibition of acetic acid-induced writhing in rat at 1.5 mg/kg peroral dose, 120 min postdose(5 rats per compound at each time).p<0.05; assay type: functional; details: 2 h, route oral
# [16] = species: Rattus norvegicus; experiment: Antinociceptive potency against acetic acid -induced writhing in rat (8 rats/dose); assay type: functional
# [17] = test system: Mus musculus; experiment: Mortality threshold doses was determined from orientative acute toxicity Irwin test (3 mice/dose) by peroral administration. Value in parentheses represent the percent mortality.; assay type: organism-based; details: in vivo, po
# [18] = test system: Rattus norvegicus; experiment: Antiinflammatory activity was evaluated by carrageenan induced rat paw edema volume was determined.; assay type: functional
# [19] = test system: Rattus norvegicus; experiment: Antiinflammatory activity was evaluated by carrageenan induced rat paw edema (6 rats/ dose) at peroral dose of 10 mg/kg by inhibition of leukotriene B4 (LTB4) synthesis.; assay type: functional; details: route oral
# [20] = species: Rattus norvegicus; experiment: animal or person; details: po, read-out: Inhibition
# Description: Antiinflammatory activity was evaluated by carrageenan induced rat paw edema (6 rats/ dose) at peroral dose of 10 mg/kg by inhibition of Prostaglandin E2 (PGE2).
# [21] = test system: Rattus norvegicus; experiment: Antiinflammatory activity was evaluated by carrageenan induced rat paw edema (6 rats/ dose) at peroral dose of 200 mg/kg by inhibition of leukotriene B4 (LTB4) synthesis.; assay type: functional; details: route oral
# [22] = test system: Rattus norvegicus; experiment: Antiinflammatory activity was evaluated by carrageenan induced rat paw edema (6 rats/ dose) at peroral dose of 200 mg/kg and percent of variation of edema volume was determined.; assay type: functional; details: route oral
# [23] = test system: Rattus norvegicus; experiment: Antiinflammatory activity was evaluated by carrageenan induced rat paw edema (6 rats/ dose) at peroral dose of 200 mg/kg by inhibition of Prostaglandin E2 (PGE2).; assay type: functional; details: route oral
SMILES,inhibition in vivo at 50 mg/kg [1],Activity ratio [2],Activity ratio [3],inhibition in vivo at 50 mg/kg [4],ED50 [6],ED50 [16],other results
O=c1oc2ncccc2n1CCN1CCN(Cc2ccccc2)CC1,43%,0.9,0.7,48%,,,
O=c1oc2ncccc2n1CCCN1CCN(c2ccc(F)cc2)CC1,85%,1.6,2,79%,5.6 mg/kg,0.5 mg/kg,inhibition in vivo at 50 mg/kg [5]: -5%; Change in volume [7]: -11%; inhibition in vivo at 1.5 mg/kg [8]: 65%; inhibition in vivo at 50 mg/kg [9]: 16%; inhibition in vivo at 1.5 mg/kg [10]: 4%; inhibition in vivo at 1.5 mg/kg [11]: 50%; inhibition in vivo at 1.5 mg/kg [12]: 44%; inhibition in vivo at 1.5 mg/kg [13]: 47%; Change in foot-licking latency [14]: 87%; inhibition in vivo at 1.5 mg/kg [15]: 63%; Mortality threshold [17]: 1024 mg/kg
O=c1oc2ncccc2n1CCCCCN1CCN(c2ccc(F)cc2)CC1,100%,1.4,1.6,100%,11.4 mg/kg,30.4 mg/kg,
O=C(CCn1c(=O)oc2ncccc21)N1CCN(c2ccc(F)cc2)CC1,25%,0.4,0.5,43%,,,
COc1ccc2c(c1)c(CC(=O)O)c(C)n2C(=O)c1ccc(Cl)cc1 [INDOMETHACIN],,,,,,,Change in volume [18]: -57%; inhibition in vivo at 10 mg/kg [19]: 18%; inhibition in vivo at 10 mg/kg [20]: 100%
O=c1oc2ncccc2n1CCN1CCCC1,55%,0.8,0.8,55%,,,
CC(CN1CCN(c2ccc(F)cc2)CC1)Cn1c(=O)oc2ncccc21 (stereo unspecified),99%,1.4,1.6,100%,24.6 mg/kg,20.5 mg/kg,
O=c1oc2ncccc2n1CCN1CCC(c2ccccc2)CC1,9%,0.1,0.7,50%,,,
O=c1oc2ncccc2n1CCCCN1CCC(c2ccccc2)CC1,0%,0,1.5,59%,,,
O=c1oc2ncccc2n1CCCCCCN1CCN(c2ccc(F)cc2)CC1,100%,1.4,1.6,100%,7.7 mg/kg,14.2 mg/kg,
O=C1CCN(c2ccccc2)N1 [PHENIDONE],,,,,,,inhibition in vivo at 200 mg/kg [21]: 100%; Change in volume [22]: -68%; inhibition in vivo at 200 mg/kg [23]: 100%
O=c1oc2ncccc2n1CCCCN1CCN(c2ccccc2)CC1,91%,1.3,1.4,96%,27 mg/kg,13.6 mg/kg,
COc1ccc(N2CCN(CCCn3c(=O)oc4ncccc43)CC2)cc1,35%,0.7,0.2,14%,,,
